Assays:
Assay type in all cases: functional
[1] = tested on: Alternaria alternata; experiment: Antimicrobial activity against Alternaria alternata at 50 ug/ml […] by poisoned food technique; settings: 120 h
[2] = tested on: Pyricularia oryzae; experiment: Antimicrobial activity against Pyricularia oryzae at 50 ug/ml after 5 days by poisoned food technique; settings: 120 h
[3] = tested on: Fusarium oxysporum f. sp. vasinfectum; experiment: Antimicrobial activity against Fusarium oxysporum f. sp. vasinfectum at 50 ug/ml […] by poisoned food technique; settings: 120 h
[4] = tested on: Alternaria brassicae; experiment: Antimicrobial activity against Alternaria brassicae at 50 ug/ml […] by poisoned food technique
[5] = tested on: Fusarium graminearum; experiment: Antimicrobial activity against Fusarium graminearum at 50 ug/ml after 5 days by poisoned food technique; settings: 120 h

| Compound | inhibition at 50 µg/mL [1] [%] | inhibition at 50 µg/mL [2] [%] | inhibition at 50 µg/mL [3] [%] | inhibition at 50 µg/mL [4] [%] | inhibition at 50 µg/mL [5] [%] |
| --- | --- | --- | --- | --- | --- |
| O=[N+]([O-])c1ccc(C2Nc3ccccc3-n3c2cc2ccccc23)cc1 (stereo not given) | 19.4 | 5.8 | 9.2 | 11.2 | 17.2 |
| Cc1cccc2c1cc1n2-c2ccccc2NC1c1ccc(O)cc1 (stereo not given) | 72.9 | 50.8 | 41.2 | 55.9 | 51.3 |
| Cc1cc(O)no1 [HYMEXAZOL] | 68.8 | 53.5 | 62.7 | 47.1 | 57 |
| Oc1ccc(C2Nc3ccccc3-n3c2cc2ccccc23)cc1 (stereo not given) | 58.3 | 50.8 | 39.2 | 31.4 | 52.1 |
| COc1ccc(C2Nc3ccccc3-n3c2cc2c(C)cccc23)cc1 (stereo not given) | 14.9 | 15.1 | 9.7 | 7.2 | 12.2 |
| Cc1cccc2c1cc1n2-c2ccccc2NC1(C)c1ccccc1 (stereo not given) | 32.7 | 34.6 | 23.6 | 29.9 | 43 |
| Cc1cccc2c1cc1n2-c2ccccc2NC1c1ccccc1O (stereo not given) | 12 | 7.8 | 11.7 | 55.8 | 8.8 |
| COc1cc(C2Nc3ccccc3-n3c2cc2ccccc23)ccc1O (stereo not given) | 9.2 | 4.4 | 11 | 15.7 | 15.7 |
| Cc1ccc2cc3n(c2c1)-c1ccccc1NC3c1ccc([N+](=O)[O-])cc1 (stereo not given) | 7.8 | 1.6 | 11.7 | 13 | 12.2 |
| Cc1cccc2c1cc1n2-c2ccccc2NC1c1ccc(N(C)C)cc1 (stereo not given) | 19.8 | 7.7 | 6.9 | 10.4 | 17.6 |
| Cc1c2n(c3ccccc13)-c1ccccc1NC2c1ccc(O)cc1 (stereo not given) | 55.6 | 46.5 | 44 | 53 | 48 |
| Cc1c2n(c3ccccc13)-c1ccccc1NC2c1ccco1 (stereo not given) | 37.3 | 33.4 | 17.8 | 30.1 | 31.5 |
| Cc1cccc2c1cc1n2-c2ccccc2NC1c1ccccc1 (stereo not given) | 29.2 | 22.1 | 8.8 | 30.4 | 32 |
| Cc1cccc2c1cc1n2-c2ccccc2NC1c1ccc([N+](=O)[O-])cc1 (stereo not given) | 17.7 | 10.1 | 5.3 | 10.4 | 24.6 |
| COc1cc(C2Nc3ccccc3-n3c2cc2c(C)cccc23)ccc1O (stereo not given) | 17.9 | 16 | 20.2 | 21 | 12.3 |
| N#Cc1ccc2c(c1)cc1n2-c2ccccc2NC1c1ccc([N+](=O)[O-])cc1 (stereo not given) | 64.6 | 62.8 | 60.8 | 52.4 | 56.3 |
| Cc1c2n(c3ccccc13)-c1ccccc1NC2c1ccc([N+](=O)[O-])cc1 (stereo not given) | 18.2 | 11.8 | 11.4 | 13.3 | 26.6 |
| Cc1ccc2cc3n(c2c1)-c1ccccc1NC3c1ccc(O)cc1 (stereo not given) | 56.3 | 43.7 | 37.3 | 49 | 41.2 |

From ChEMBL document CHEMBL1770128, “Synthesis and antifungal activities of novel 5,6-dihydro-indolo[1,2-a]quinoxaline derivatives” (2011)
